Literature values in publication PMC4942611, “Promising Tools in Prostate Cancer Research: Selective Non-Steroidal Cytochrome P450 17A1 Inhibitors” (Scientific Reports, 2016).
Read-outs that look alike come from different tables or passages of the source.

Test system: CYP17A1
Design: method as in PMID 24775307
Conditions: cited from earlier work

## CC(C)[C@](O)(c1ccc2cc(OC(F)F)c(OC(F)F)cc2c1)c1c[nH]nn1 [VT-464]
read-out: IC50 hydroxylase step
  IC50: 670 nM
read-out: IC50 lyase step
  IC50: 69 nM
